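Five concentrations, 48 hours, 96-well plates. TGI marks complete inhibition of growth.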
How the values were obtained:
Experiment in all cases: NCI-60 cell line screen, 48 h
CCRF-CEM leukemia = tested on: CCRF-CEM leukemia
EKVX NSCLC = tested on: EKVX NSCLC
HL-60(TB) leukemia = tested on: HL-60(TB) leukemia
HT29 colon = tested on: HT29 colon
KM12 colon = tested on: KM12 colon
M14 melanoma = tested on: M14 melanoma
NCI-H522 lung = tested on: NCI-H522 lung
OVCAR-4 ovarian = tested on: OVCAR-4 ovarian
SF-295 CNS = tested on: SF-295 CNS
SN12C renal = tested on: SN12C renal
SNB-19 CNS = tested on: SNB-19 CNS
SNB-75 CNS = tested on: SNB-75 CNS
SW-620 colon = tested on: SW-620 colon
U251 CNS = tested on: U251 CNS
A498 renal = tested on: A498 renal
PC-3 prostate = tested on: PC-3 prostate
SF-539 CNS = tested on: SF-539 CNS
SK-MEL-5 melanoma = tested on: SK-MEL-5 melanoma
HS 578T breast = tested on: HS 578T breast

| Compound | TGI (CCRF-CEM leukemia) [µM] | TGI (EKVX NSCLC) [µM] | TGI (HL-60(TB) leukemia) [µM] | TGI (HT29 colon) [µM] | TGI (KM12 colon) [µM] | TGI (M14 melanoma) [µM] | TGI (NCI-H522 lung) [µM] | TGI (OVCAR-4 ovarian) [µM] | TGI (SF-295 CNS) [µM] | TGI (SN12C renal) [µM] | TGI (SNB-19 CNS) [µM] | TGI (SNB-75 CNS) [µM] | TGI (SW-620 colon) [µM] | TGI (U251 CNS) [µM] | TGI (A498 renal) [µM] | TGI (PC-3 prostate) [µM] | TGI (SF-539 CNS) [µM] | TGI (SK-MEL-5 melanoma) [µM] | TGI (HS 578T breast) [µM] |
| --- | --- | --- | --- | --- | --- | --- | --- | --- | --- | --- | --- | --- | --- | --- | --- | --- | --- | --- | --- |
| CCOC(=O)C1(C#N)C(c2ccccc2)CC(O)(c2ccc([N+](=O)[O-])cc2)C(C(=O)c2ccc([N+](=O)[O-])cc2)C1c1ccccc1 (stereo unspecified) | > 100 | > 100 | > 100 | > 100 | > 100 | > 100 | > 100 | > 100 | > 100 | > 100 | > 100 | 96.5 | > 100 | > 100 |  |  |  |  |  |
| c1ccc(CSc2ccccc2CN2CCN(Cc3ccccc3SCc3ccccc3)CCN(Cc3ccccc3SCc3ccccc3)CC2)cc1 | > 100 | 3.39 | 4.06 | 2.42 | 5.26 | 2.93 | 1.76 | 3.38 | 2.45 | 3.36 | 5.19 | 4.18 | 69.2 | 2.08 | 5.81 | 2.52 | 3.54 | 2.95 |  |
| C1=Nc2ccc(cc2)N=Cc2ccccc2OCc2cccc(n2)COc2ccccc21 | > 100 | > 100 | > 100 | > 100 | > 100 | > 100 | > 100 | > 100 | > 100 | > 100 | 75.1 |  | > 100 | > 100 | > 100 | > 100 | 81.6 | > 100 |  |
| O=c1cc(-c2ccccc2)oc2cc(OCC(O)COc3ccc4c(=O)cc(-c5ccccc5)oc4c3)ccc12 | > 100 | > 100 | > 100 | > 100 | > 100 | > 100 | > 100 |  | > 100 |  | 53.6 |  | > 100 | 63.1 | > 100 |  | 57 | > 100 |  |
| CN(C)CCCNC(=O)c1cc(NC(=O)c2cc(NS(=O)(=O)c3ccc4c(c3)C(=O)c3ccccc3C4=O)cn2C)cn1C | > 100 | > 100 | > 100 | > 100 | > 100 | > 100 | > 100 | > 100 | > 100 | > 100 | > 100 | > 100 | > 100 | > 100 | > 100 | > 100 | > 100 | > 100 |  |
| CC1=C(C#N)C23C(=O)c4ccccc4C(O)=C2C(=O)C=CC3(O)N1 (stereo unspecified) | > 100 | > 100 | 15.2 | 5.02 | 38.6 | 13 | 4.81 | 4.16 | 66.9 | 6.19 | 25.5 | 4.56 | 12.6 | > 100 | 37.6 | 28.7 | 8.83 | 2.75 |  |
| CC(C)(C)OC(=O)[C@@H]1CCC(=S)N1Cc1ccccc1 | > 100 | > 100 |  |  | > 100 | > 100 | > 100 | > 100 | > 100 | > 100 | > 100 | > 100 | > 100 | > 100 | > 100 | > 100 | > 100 | > 100 |  |
| NC1OC(COC(=O)c2ccccc2)C(O)C(OC(=O)c2ccccc2)C1OC(=O)c1ccccc1 (stereo unspecified) |  | 60.2 |  | 32.5 |  | 58.1 | 58.5 | > 100 | 33.6 | 50.9 | > 100 | 39.8 | 53.6 | 34.2 |  | 58.2 |  | 27.5 | 42.6 |
| Cc1ccc2nc(N/N=C/c3ccc(C)s3)cc(C)c2c1 |  | 26.1 |  | 12.4 | 16.1 | 23.3 | 18.9 | 24.2 | 21.1 | 25.3 | 27.2 |  | 29.4 | 27.6 |  | 24.1 | 24.4 | 20.4 | 39.2 |
| CC(=O)OCc1ccc2oc(=O)c(C(=O)Oc3cccc(Cl)c3)cc2c1 | > 100 | > 100 |  | 80.2 | > 100 | > 100 | > 100 | > 100 | > 100 | > 100 | > 100 | > 100 | > 100 | > 100 |  | 34.4 | > 100 | > 100 | > 100 |
| CCOC(=O)C[C@@H](C)[C@]1(C(=O)OC)CCCC1=O | > 100 | > 100 | > 100 | > 100 | > 100 | > 100 | > 100 | > 100 | > 100 | > 100 | > 100 | > 100 | > 100 | > 100 | > 100 |  | > 100 | > 100 |  |
| O=C(Nc1cc2c(=O)[nH]c3ccccc3c2oc1=O)c1cnccn1 | > 100 | > 100 |  | > 100 | > 100 | > 100 | > 100 | > 100 | > 100 | > 100 | > 100 | > 100 | > 100 | > 100 |  | > 100 | > 100 | > 100 |  |
| COc1ccc(/C=N/N=C(\N)NO)c(Cl)c1O | > 100 | > 100 |  |  | > 100 |  | 42.1 | > 100 | 22.4 | > 100 | > 100 |  | > 100 | > 100 |  |  | 46.5 | 40.6 |  |

Source: PubChem BioAssay (NCI)
